Measurements published in patent US20040002052A1, “Systems and methods for rapid evaluation and design of molecules for predicted biological activity” (priority 2001, published 2004).
Entries after “also recorded” stand apart in the source; their conditions may differ.

Columns and labels:
[1] = test system: estrogenic activity; test: uterotrophic assays (estrogenic bioactivity); format: in vivo; conditions: compared with estradiol
[2] = test system: estrogenic activity; conditions: Medicinal Chemistry Research 10:440-455, 2001; cited from earlier work

For CO[C@H]1C[C@]2(C)[C@@H](O)CC[C@H]2[C@H]2[C@H]1c1ccc(O)cc1C[C@H]2C [PDC-7, 11β-Methoxy-7α-Methylestradiol], the “biological potency in uterotrophic assays / estrogenic activity” value [1] is listed as “improved biological potency over estradiol; also recorded: potent estrogenic activity” and the “estrogenic bioactivity compared with estradiol” value [2] is listed as “greater estrogenic bioactivity than estradiol”.
